System: seed potatoes (variety: danshaku)
Assay: Desiccation and defoliation effect on potted potato plants in greenhouse (Test Example 1)
Assay type: in vivo
Conditions: potato foliage; for desiccation and defoliation effect, 4 DAT: 4 days after treatment; for desiccation and defoliation effect, 7 DAT: 7 days after treatment; for desiccation and defoliation effect, 10 DAT: 10 days after treatment; for desiccation and defoliation effect, 16 DAT: 16 days after treatment
Experimental: In 5100-ml plastic pots filled up with soil (clay loam), seed potatoes (variety: danshaku) were planted and cultivated in a greenhouse. When the foliage was fully developed, specifically, at 30 days after flowering, the test plants were treated with the predetermined effective dosage (expressed as the amounts of active ingredients in g/ha) of the composition of the present invention in a liquid form, and further cultivated in the greenhouse. In the period from 4 days to 16 days after the treatment, the desiccation effect was surveyed and the herbicidal effect was evaluated according to the criterion described below.
Regarding the criterion for evaluating the desiccation and defoliation effect, the extent of desiccation and defoliation was graded from 0% (no effect) to 100% (completely desiccated).

SMILES | desiccation and defoliation effect, 4 DAT (dosage 10 g.a.i./ha) | desiccation and defoliation effect, 7 DAT (dosage 10 g.a.i./ha) | desiccation and defoliation effect, 10 DAT (dosage 10 g.a.i./ha) | desiccation and defoliation effect, 16 DAT (dosage 10 g.a.i./ha) | desiccation and defoliation effect, 4 DAT (dosage 20 g.a.i./ha) | desiccation and defoliation effect, 7 DAT (dosage 20 g.a.i./ha) | desiccation and defoliation effect, 10 DAT (dosage 20 g.a.i./ha) | desiccation and defoliation effect, 16 DAT (dosage 20 g.a.i./ha) | desiccation and defoliation effect, 4 DAT (dosage 32 g.a.i./ha) | desiccation and defoliation effect, 7 DAT (dosage 32 g.a.i./ha) | desiccation and defoliation effect, 10 DAT (dosage 32 g.a.i./ha) | desiccation and defoliation effect, 16 DAT (dosage 32 g.a.i./ha) | desiccation and defoliation effect, 4 DAT (dosage 64 g.a.i./ha) | desiccation and defoliation effect, 7 DAT (dosage 64 g.a.i./ha) | desiccation and defoliation effect, 10 DAT (dosage 64 g.a.i./ha) | desiccation and defoliation effect, 16 DAT (dosage 64 g.a.i./ha)
CCOC(=O)COc1cc(-c2nn(C)c(OC(F)F)c2Cl)c(F)cc1Cl [Pyraflufen-ethyl] | 38% | 42% | 45% | 58% | 48% | 50% | 55% | 68% |  |  |  |  |  |  |  | 
Cc1nn(-c2cc(CC(Cl)C(=O)O)c(Cl)cc2F)c(=O)n1C(F)F (stereo not shown) [Carfentrazone] |  |  |  |  |  |  |  |  | 18% | 22% | 33% | 40% | 45% | 52% | 58% | 70%
